Key:
Format in all cases: in vivo, mouse
BALB/c mice = assay: Tail bleeding assay
Method: (§1) Mice not receiving treatment with FeCl3 solution were evaluated in a tail bleeding chamber. Mice were placed into the bleeding chamber two days after the final treatment of ISIS 403102 or PBS. Mice were anesthetized in the chamber with isofluorane and a small piece of tail (approximately 4 mm from the tip) was cut with sterile scissors. The cut tail was immediately placed in a 15 mL Falcon tube filled with approximately 10 mL of 0.9% NaCl buffer solution warmed to 37° C. The blood was collected over the course of 40 minutes. The saline filled tubes were weighed both before and after bleeding.
Tail-bleeding was measured to observe whether treatment with ISIS 403102 or warfarin causes internal hemorrhage in mice. ISIS 403102 and warfarin (Coumadin®) were evaluated in the tail bleeding assay. Six groups of BALB/c mice were treated with 1.25 mg/kg, 2.5 mg/kg, 5 mg/kg, 10 mg/kg, 20 mg/kg, or 40 mg/kg of ISIS 403102, administered subcutaneously twice a week for 3 weeks. An additional 6 groups of BALB/c mice were treated with 0.5 mg/kg, 1 mg/kg, 2 mg/kg, 3 mg/kg, 4 mg/kg, and 5 mg/kg of warfarin, administered intraperioneally daily for 6 days. A separate control group of BALB/c mice was treated with PBS, administered subcutaneously twice a week for 3 weeks.
as §1, with “Two” for “Mice not receiving treatment with FeCl3 solution were evaluated in a tail bleeding chamber. Mice were placed into the bleeding chamber two”, “403102, warfarin,” for “403102”, “PBS, mice were placed in a tail bleeding chamber.” for “PBS.”
ISIS 403102 and Apixaban were evaluated in BALB/c mice. In a first group of BALB/c mice, 40 mg/kg of ISIS 403102 was administered subcutaneously twice a week for 3 weeks. An additional 3 groups of BALB/c mice were treated with 5 mg/kg and 10 mg/kg of Apixaban, administered in a single intraperitoneal dose, and 10 mg/kg of Apixaban administered as a single subcutaneous dose. A control group of BALB/c mice was treated with PBS, administered subcutaneously twice a week for 3 weeks.
as §1, with “Two” for “Mice not receiving treatment with FeCl3 solution were evaluated in a tail bleeding chamber. Mice were placed into the bleeding chamber two”, “PBS, mice were placed in a tail bleeding chamber. Mice from the groups treated with Apixaban were analyzed 30 minutes after the single dose.” for “PBS.”, “weighed” for “weighed both”

murine Factor 7 mRNA = assay: Liver Factor 7 mRNA in the FeCl3 induced venous thrombosis model; conditions: Example 15
Method: (§2) Three groups of BALB/c mice were injected with 25 mg/kg, 37.5 mg/kg, or 50 mg/kg of ISIS 403102, administered subcutaneously twice a week for 3 weeks. Two control groups of BALB/c mice were treated with PBS, administered subcutaneously twice a week for 3 weeks. Thrombus formation was induced with FeCl3 in half of the mice while the rest of the mice were assayed for tail bleeding. Two days after receiving the last dose of ISIS 403102 or PBS, mice were anesthetized with 150 mg/kg ketamine mixed with 10 mg/kg xylazine administered by intraperitoneal injection. Thrombus formation was induced with FeCl3 in all groups of the VT mice except the first control group.
(§3) In mice undergoing FeCl3 treatment, thrombus formation was induced by applying a piece of filter paper (2×4 mm) pre-saturated with 10% FeCl3 solution directly on the vena cava. After 3 minutes of exposure, the filter paper was removed. Thirty minutes after the filter paper application, a fixed length of the vein containing the thrombus was dissected out for platelet analysis. Liver was collected for RNA analysis.
RNA was extracted from liver tissue for real-time RT-PCR analysis of Factor 7. Results are presented as percent inhibition of Factor 7, relative to PBS control.
ISIS 403102 and warfarin (Coumadin®) were evaluated in BALB/c mice. Four groups of BALB/c mice were treated with 5 mg/kg, 10 mg/kg, 20 mg/kg, or 40 mg/kg of ISIS 403102, administered subcutaneously twice a week for 3 weeks. Two days after receiving the last dose of ISIS 403102, mice were anesthetized with 150 mg/kg ketamine mixed with 10 mg/kg xylazine administered by intraperitoneal injection. A fifth group of BALB/c mice was treated with 3 mg/kg of warfarin, administered intraperioneally daily for 6 days. Four hours after the last dose of warfarin, mice were sacrificed. A control group of BALB/c mice were treated with PBS, administered subcutaneously twice a week for 3 weeks. Two days after the last dose of PBS, mice were anesthetized with 150 mg/kg ketamine mixed with 10 mg/kg xylazine administered by intraperitoneal injection. Thrombus formation was induced with FeCl3 in groups of mice except the first control group.

platelet factor-4 (PF-4) = assay: Thrombus formation by real-time RT-PCR quantification of PF-4 in the FeCl3 induced venous thrombosis model; conditions: Example 16; dose of 1 mg/kg and higher, intraperitoneally daily for 6 days
Method: as §2, §3
(§4) Real-time RT-PCR quantification of platelet factor-4 (PF-4) was used to quantify platelets in the vena cava as a measure of thrombus formation. Results are presented as a percentage of PF-4 in ISIS 403102, as compared to the two PBS-treated control groups. […] Therefore, antisense oligonucleotides are useful for inhibiting thrombus and clot formation.
ISIS 403102 and warfarin (Coumadin®) were evaluated in BALB/c mice. Four groups of BALB/c mice were treated with 5 mg/kg, 10 mg/kg, 20 mg/kg, or 40 mg/kg of ISIS 403102, administered subcutaneously twice a week for 3 weeks. Two days after receiving the last dose of ISIS 403102, mice were anesthetized with 150 mg/kg ketamine mixed with 10 mg/kg xylazine administered by intraperitoneal injection. Six additional groups of BALB/c mice was treated with 0.5 mg/kg, 1 mg/kg, 2 mg·kg, 3 mg/kg, 4 mg/kg, or 5 mg/kg of warfarin, administered intraperioneally daily for 6 days. Four hours after the last dose of warfarin, mice were sacrificed. A control group of BALB/c mice were treated with PBS, administered subcutaneously twice a week for 3 weeks. Two days after the last dose of PBS, mice were anesthetized with 150 mg/kg ketamine mixed with 10 mg/kg xylazine administered by intraperitoneal injection. Thrombus formation was induced with FeCl3 in groups of mice except the first control group.
as §4, with “403102 or warfarin treated mice,” for “403102,”, “Therefore, ISIS” for “Therefore,”

403102 (antisense CCATAGAACAGCTTCACAGG; chemistry not given here) [compound 403102]
Blood (g), tail bleeding (BALB/c mice; mouse, in vivo, sc, 25 mg/kg): 0.06 g
Blood (g), tail bleeding (BALB/c mice; mouse, in vivo, sc, 37.5 mg/kg): 0.06 g
Blood (g), tail bleeding (BALB/c mice; mouse, in vivo, sc, 50 mg/kg): 0.10 g

CC(=O)CC(c1ccccc1)c1c(O)c2ccccc2oc1=O (stereo not shown) [warfarin]
reduction of Factor 7 mRNA as compared to the PBS control (murine Factor 7 mRNA; 3 mg/kg intraperitoneally daily for 6 days): did not result in significant reduction of Factor 7
% inhibition of Factor 7 mRNA, relative to PBS control (murine Factor 7 mRNA; BALB/c mice liver, 3 mg/kg i.p. daily for 6 days, four hours after last dose): 10%
bleeding as compared to PBS control mice (BALB/c mice; Example 17, 0.5-5 mg/kg intraperitoneally daily for 6 days): did increase bleeding
Blood (g), tail bleeding (BALB/c mice; Example 17, BALB/c mice, 0.5 mg/kg i.p. daily for 6 days, blood collected over 40 minutes): 0.16 g
Blood (g), tail bleeding (BALB/c mice; Example 17, BALB/c mice, 1 mg/kg i.p. daily for 6 days, blood collected over 40 minutes): 0.28 g
Blood (g), tail bleeding (BALB/c mice; Example 17, BALB/c mice, 2 mg/kg i.p. daily for 6 days, blood collected over 40 minutes): 0.58 g
Blood (g), tail bleeding (BALB/c mice; Example 17, BALB/c mice, 3 mg/kg i.p. daily for 6 days, blood collected over 40 minutes): 0.78 g
Blood (g), tail bleeding (BALB/c mice; Example 17, BALB/c mice, 4 mg/kg i.p. daily for 6 days, blood collected over 40 minutes): 0.66 g
Blood (g), tail bleeding (BALB/c mice; Example 17, BALB/c mice, 5 mg/kg i.p. daily for 6 days, blood collected over 40 minutes): 0.93 g
PF-4 in comparison to the PBS control (platelet factor-4 (PF-4)): reduction of PF-4

COc1ccc(-n2nc(C(N)=O)c3c2C(=O)N(c2ccc(N4CCCCC4=O)cc2)CC3)cc1 [apixaban, Apixaban]
Blood (g), tail bleeding (BALB/c mice; BALB/c, mouse, in vivo, ip, 5 mg/kg, 30 min): 0.22 g
Blood (g), tail bleeding (BALB/c mice; BALB/c, mouse, in vivo, ip, 10 mg/kg, 30 min): 0.58 g
Blood (g), tail bleeding (BALB/c mice; BALB/c, mouse, in vivo, sc, 10 mg/kg, 30 min): 0.04 g
bleeding compared to PBS treated mice (BALB/c mice; mouse, in vivo, ip, 5 mg/kg): same amount of bleeding as PBS treated mice
bleeding compared to PBS treated mice (BALB/c mice; mouse, in vivo, ip, 10 mg/kg): increased bleeding
bleeding compared to PBS treated mice (BALB/c mice; mouse, in vivo, sc, 10 mg/kg): less bleeding than PBS mice
